Measurements from patent publication US20240041042A1, “1-(PYRIDYL)-5-AZINYLPYRAZOLE DERIVATIVES, AND THEIR USE FOR CONTROL OF UNDESIRED PLANT GROWTH” (Bayer Aktiengesellschaft, priority 2020, published 2024).

How the values were obtained:
Type in all cases: in vivo
[1] = system: Alopecurus myosuroides (ALOMY); test: Post-emergence herbicidal action against ALOMY; conditions: visual rating about 3 weeks after treatment vs untreated controls (100% = plants have died, 0% = like control plants)
How it was run: (§1)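 Post-emergence greenhouse spray, one-leaf stage, 600 l/ha water plus 0.5% additive; WP or EC formulations; application rates 320 g/ha or lower. Visual % damage vs untreated controls at ~3 weeks.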

[2] = system: Polygonum convolvulus (POLCO); test: Pre-emergence herbicidal action against POLCO
How it was run: (§2)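 Seeds sown in pots and covered with soil; WP or EC formulations sprayed onto the soil surface at 600 l/ha water with 0.5% additive, at 320 g/ha or lower. Greenhouse growth for about 3 weeks, then visual scoring as % effect against untreated controls (100% = plants dead).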

[3] = system: Matricaria inodora (MATIN); test: Post-emergence herbicidal action against MATIN; conditions: dosage 320 g/ha
How it was run: as §1

Avena fatua (AVEFA) [4] = test: Pre-emergence herbicidal action against AVEFA; conditions: visual scoring after about 3 weeks vs untreated controls
How it was run: as §2

Setaria viridis (SETVI) [5] = test: Pre-emergence herbicidal action against SETVI
How it was run: as §2

[6] = system: Alopecurus myosuroides (ALOMY); test: Pre-emergence herbicidal action against ALOMY; conditions: scored visually after about 3 weeks, 100% = plants have died
How it was run: as §2

[7] = system: Abutilon theophrasti (ABUTH); test: Post-emergence herbicidal action against ABUTH; conditions: visual rating about 3 weeks after treatment vs untreated controls (100% = plants have died, 0% = like control plants)
How it was run: as §1

Oryza sativa (ORYSA) = conditions: crop plant compatibility, 80 g/ha, effect in comparison to untreated controls
How it was run: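 Greenhouse crops in sandy loam sprayed post-emergence at the one-leaf stage, 2–3 weeks after sowing, with WP or EC formulations in water plus 0.5% additive at 600 l/ha. Damage rated visually about 3 weeks later versus untreated controls (0% = like control, 100% = dead); suffixes a–c denote different doses.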

Avena fatua (AVEFA) [8] = test: Post-emergence herbicidal action against AVEFA; conditions: visual rating about 3 weeks after treatment
How it was run: as §1

[9] = system: Amaranthus retroflexus (AMARE); test: Pre-emergence herbicidal action against AMARE; conditions: visual scoring after about 3 weeks vs untreated controls
How it was run: as §2

Viola tricolor (VIOTR) [10] = test: Pre-emergence herbicidal action against VIOTR
How it was run: as §2

[11] = system: Polygonum convolvulus (POLCO); test: Post-emergence herbicidal action against POLCO
How it was run: as §1

[12] = system: Verconica persica (VERPE); test: Pre-emergence herbicidal action against VERPE
How it was run: as §2

[13] = system: Verconica persica (VERPE); test: Post-emergence herbicidal action against VERPE
How it was run: as §1

[14] = system: Abutilon theophrasti (ABUTH); test: Pre-emergence herbicidal action against ABUTH; conditions: Dosage column 320 g/ha (title prints 3200 g/ha); scored visually after about 3 weeks; 100% = plants have died
How it was run: as §2

[15] = system: Amaranthus retroflexus (AMARE); test: Post-emergence herbicidal action against AMARE
How it was run: as §1

Lolium rigidum (LOLRI) [16] = test: Post-emergence herbicidal action against LOLRI
How it was run: as §1

[17] = system: Pharbitis purpurea (PHBPU); test: Pre-emergence herbicidal action against PHBPU
How it was run: as §2

Viola tricolor (VIOTR) [18] = test: Post-emergence herbicidal action against VIOTR
How it was run: as §1

Setaria viridis (SETVI) [19] = test: Post-emergence herbicidal action against SETVI
How it was run: as §1

[20] = system: Echinochloa crus-galli (ECHCG); test: Pre-emergence herbicidal action against ECHCG
How it was run: as §2

[21] = system: Matricaria inodora (MATIN); test: Pre-emergence herbicidal action against MATIN
How it was run: as §2

[22] = system: Echinochloa crus-galli (ECHCG); test: Post-emergence herbicidal action against ECHCG
How it was run: as §1

Lolium rigidum (LOLRI) [23] = test: Pre-emergence herbicidal action against LOLRI
How it was run: as §2

[24] = system: Pharbitis purpurea (PHBPU); test: Post-emergence herbicidal action against PHBPU
How it was run: as §1

[25] = 320 g/ha, visual rating about 3 weeks after treatment

## COC(=O)CNC(=O)[C@@H](C)Oc1nn(-c2ccccn2)c(-c2cncc(F)c2)c1Cl [Example I-185]
[1]; 320 g/ha
  Post-emergence action against ALOMY in %: 80%
[2]; dosage 80 g/ha
  Pre-emergence action against POLCO in %: 80%
[2]; dosage 320 g/ha
  Pre-emergence action against POLCO in %: 90%
[3]
  Post-emergence action against MATIN in %: 80%
Avena fatua (AVEFA) [4]; 320 g/ha
  Pre-emergence action against AVEFA in %: 90%
Setaria viridis (SETVI) [5]; dosage 80 g/ha
  Pre-emergence action against SETVI in %: 80%
Setaria viridis (SETVI) [5]; dosage 320 g/ha
  Pre-emergence action against SETVI in %: 100%
[6]; 80 g/ha
  Pre-emergence action against ALOMY: 80%
[6]; 320 g/ha
  Pre-emergence action against ALOMY: 90%
[7]; 80 g/ha
  Post-emergence action against ABUTH in %: 80%
[7]; 320 g/ha
  Post-emergence action against ABUTH in %: 80%
Oryza sativa (ORYSA)
  Post-emergence action against ORYSA in %: 20%
Avena fatua (AVEFA) [8]; 320 g/ha
  Post-emergence action against AVEFA in %: 80%
[9]; 80 g/ha
  Pre-emergence action against AMARE in %: 100%
[9]; 320 g/ha
  Pre-emergence action against AMARE in %: 100%
Viola tricolor (VIOTR) [10]; 320 g/ha, Viola tricolor
  Pre-emergence action against VIOTR in %: 100%
Viola tricolor (VIOTR) [10]; dosage 80 g/ha
  Pre-emergence action against VIOTR in %: 100%
[11]; dosage 320 g/ha
  Post-emergence action against POLCO in %: 80%
[12]; dosage 80 g/ha
  Pre-emergence action against VERPE in %: 80%
[12]; dosage 320 g/ha
  Pre-emergence action against VERPE in %: 90%
[13]; 320 g/ha, VERPE
  Post-emergence action against VERPE in %: 80%
[13]; dosage 80 g/ha
  Post-emergence action against VERPE in %: 80%
[14]
  Pre-emergence action against ABUTH: 80%
[15]; [25]
  Post-emergence action against AMARE in %: 80%
Lolium rigidum (LOLRI) [16]; dosage 80 g/ha
  Post-emergence action against LOLRI in %: 80%
Lolium rigidum (LOLRI) [16]; dosage 320 g/ha
  Post-emergence action against LOLRI in %: 80%
[17]; dosage 80 g/ha
  Pre-emergence action against PHBPU in %: 80%
[17]; dosage 320 g/ha
  Pre-emergence action against PHBPU in %: 90%
Viola tricolor (VIOTR) [18]; 80 g/ha
  Post-emergence action against VIOTR in %: 80%
Viola tricolor (VIOTR) [18]; 320 g/ha
  Post-emergence action against VIOTR in %: 80%
Setaria viridis (SETVI) [19]; dosage 320 g/ha
  Post-emergence action against SETVI in %: 80%
[20]; dosage 80 g/ha
  Pre-emergence action against ECHCG in %: 80%
[20]; dosage 320 g/ha
  Pre-emergence action against ECHCG in %: 90%
[21]; dosage 80 g/ha
  Pre-emergence action against MATIN in %: 80%
[21]; dosage 320 g/ha
  Pre-emergence action against MATIN in %: 90%
[22]; dosage 80 g/ha
  Post-emergence action against ECHCG in %: 80%
[22]; dosage 320 g/ha
  Post-emergence action against ECHCG in %: 90%
Lolium rigidum (LOLRI) [23]; dosage 80 g/ha
  Pre-emergence action against LOLRI in %: 100%
Lolium rigidum (LOLRI) [23]; dosage 320 g/ha
  Pre-emergence action against LOLRI in %: 100%

## C[C@@H](Oc1nn(-c2ncccc2F)c(-c2ccc(F)nc2)c1C1CC1)C(=O)O [Example I-342]
[1]; 80 g/ha
  Post-emergence action against ALOMY in %: 100%
[1]; 320 g/ha
  Post-emergence action against ALOMY in %: 100%
[2]; dosage 80 g/ha
  Pre-emergence action against POLCO in %: 90%
[2]; dosage 320 g/ha
  Pre-emergence action against POLCO in %: 100%
[3]
  Post-emergence action against MATIN in %: 100%
Avena fatua (AVEFA) [4]; 80 g/ha
  Pre-emergence action against AVEFA in %: 90%
Avena fatua (AVEFA) [4]; 320 g/ha
  Pre-emergence action against AVEFA in %: 100%
Setaria viridis (SETVI) [5]; dosage 80 g/ha
  Pre-emergence action against SETVI in %: 90%
Setaria viridis (SETVI) [5]; dosage 320 g/ha
  Pre-emergence action against SETVI in %: 100%
[6]; 80 g/ha
  Pre-emergence action against ALOMY: 100%
[6]; 320 g/ha
  Pre-emergence action against ALOMY: 100%
[7]; 80 g/ha
  Post-emergence action against ABUTH in %: 80%
[7]; 320 g/ha
  Post-emergence action against ABUTH in %: 90%
Avena fatua (AVEFA) [8]; 80 g/ha
  Post-emergence action against AVEFA in %: 90%
Avena fatua (AVEFA) [8]; 320 g/ha
  Post-emergence action against AVEFA in %: 100%
[9]; 80 g/ha
  Pre-emergence action against AMARE in %: 100%
[9]; 320 g/ha
  Pre-emergence action against AMARE in %: 100%
Viola tricolor (VIOTR) [10]; 320 g/ha, Viola tricolor
  Pre-emergence action against VIOTR in %: 100%
Viola tricolor (VIOTR) [10]; dosage 80 g/ha
  Pre-emergence action against VIOTR in %: 100%
[11]; dosage 80 g/ha
  Post-emergence action against POLCO in %: 80%
[11]; dosage 320 g/ha
  Post-emergence action against POLCO in %: 90%
[12]; dosage 80 g/ha
  Pre-emergence action against VERPE in %: 90%
[12]; dosage 320 g/ha
  Pre-emergence action against VERPE in %: 100%
[24]; dosage 80 g/ha
  Post-emergence action against PHBPU in %: 80%
[24]; dosage 320 g/ha
  Post-emergence action against PHBPU in %: 90%
[13]; 320 g/ha, VERPE
  Post-emergence action against VERPE in %: 90%
[13]; dosage 80 g/ha
  Post-emergence action against VERPE in %: 90%
[14]
  Pre-emergence action against ABUTH: 90%
[15]; 80 g/ha, visual rating about 3 weeks after treatment vs untreated controls (100% = plants have died, 0% = like control plants)
  Post-emergence action against AMARE in %: 90%
[15]; [25]
  Post-emergence action against AMARE in %: 90%
Lolium rigidum (LOLRI) [16]; dosage 80 g/ha
  Post-emergence action against LOLRI in %: 90%
Lolium rigidum (LOLRI) [16]; dosage 320 g/ha
  Post-emergence action against LOLRI in %: 90%
[17]; dosage 80 g/ha
  Pre-emergence action against PHBPU in %: 80%
[17]; dosage 320 g/ha
  Pre-emergence action against PHBPU in %: 90%
Viola tricolor (VIOTR) [18]; 80 g/ha
  Post-emergence action against VIOTR in %: 90%
Viola tricolor (VIOTR) [18]; 320 g/ha
  Post-emergence action against VIOTR in %: 90%
Setaria viridis (SETVI) [19]; dosage 80 g/ha
  Post-emergence action against SETVI in %: 90%
Setaria viridis (SETVI) [19]; dosage 320 g/ha
  Post-emergence action against SETVI in %: 90%
[20]; dosage 80 g/ha
  Pre-emergence action against ECHCG in %: 100%
[20]; dosage 320 g/ha
  Pre-emergence action against ECHCG in %: 100%
[21]; dosage 80 g/ha
  Pre-emergence action against MATIN in %: 100%
[21]; dosage 320 g/ha
  Pre-emergence action against MATIN in %: 100%
[22]; dosage 80 g/ha
  Post-emergence action against ECHCG in %: 90%
[22]; dosage 320 g/ha
  Post-emergence action against ECHCG in %: 90%
Lolium rigidum (LOLRI) [23]; dosage 80 g/ha
  Pre-emergence action against LOLRI in %: 100%
Lolium rigidum (LOLRI) [23]; dosage 320 g/ha
  Pre-emergence action against LOLRI in %: 100%
